Structures can show the parent of a compound that is named as a salt.
Molecular target: T1, 5-HT2 receptors (Rattus norvegicus, UniProt P14842)
T1 construct: essentially as described by Leysen et al. (Mol. Pharmacol. 21, 301-14, 1982) using; from tissue
Assay: Affinity to 5-HT2 receptors (Test 1, 3H-ketanserin binding)
Settings: 3H-ketanserin as ligand
Description: Test 1. Affinity to 5-HT2 receptors.
The binding assay is carried out essentially as described by Leysen et al. (Mol. Pharmacol. 21, 301-14, 1982) using ^3 H-ketanserin as ligand.

T1 sequence (P14842 whole entry): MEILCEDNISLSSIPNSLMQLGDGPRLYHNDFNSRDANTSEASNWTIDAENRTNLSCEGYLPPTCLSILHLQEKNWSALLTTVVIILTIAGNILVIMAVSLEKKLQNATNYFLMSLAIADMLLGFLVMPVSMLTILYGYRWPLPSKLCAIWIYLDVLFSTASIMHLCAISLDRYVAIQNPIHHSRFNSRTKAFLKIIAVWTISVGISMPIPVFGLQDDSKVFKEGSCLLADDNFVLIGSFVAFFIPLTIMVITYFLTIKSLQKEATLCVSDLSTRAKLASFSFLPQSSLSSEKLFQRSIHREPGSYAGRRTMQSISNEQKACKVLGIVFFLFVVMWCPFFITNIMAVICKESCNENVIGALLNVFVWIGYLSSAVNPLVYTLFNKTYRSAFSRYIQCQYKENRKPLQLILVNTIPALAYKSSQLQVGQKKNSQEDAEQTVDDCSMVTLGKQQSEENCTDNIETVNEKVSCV

SMILES | Ki [nM]
Fc1ccc(N(CCCN2CCN(c3ccccn3)CC2)c2ccc(F)cc2)cc1 [1:1, 1-{3-[Bis-(4-fluorophenyl)amino]propyl}-4-(2-pyridyl)-piperazine-dihydrochloride] | 18
Fc1ccc(C(OCCN2CCN(c3ccccn3)CC2)c2ccc(F)cc2)cc1 [3:1, 4-{2-[(4.4'-Difluorobenzhydryl)oxyl]ethyl}-1-(2-pyridyl)piperazine dihydrochloride] | 11

Source: patent US6326371A, “Pyrudyl and pyrimidylpiperazine derivatives” (Pharmacia Aktiebolag, priority 1992, dated 2001)
